Earlier results as cited in patent US20050196379A1, “Combination therapies with L-FMAU for the treatment of hepatitis B virus infection” (priority 2002, published 2005).

Tests used:
[1] = test system: woodchuck hepatitis B virus (WHV); conditions: for drop of viral titers in serum: single drug, previous studies, same time frame (two weeks)
[2] = test system: hepatitis B virus; conditions: in vivo

Row | Molecule | drop of viral titers in serum [1] | effect on viral replication and viral clearance ([1]; woodchuck model of HBV) | activity against hepatitis B virus in duck models [2] | average decrease in CCC DNA ([1]; L-FMAU alone, Peek et al.) [fold] | number of infected hepatocytes ([1]; woodchuck model)
1 | β-2-hydroxymethyl-5-(5-fluorocytosin-1-yl)-1,3-oxathiolane [β-L-FTC] | about 56 fold | inhibit viral replication but not induce viral clearance | strong activity |  | 
2 | Cc1cn([C@H]2O[C@@H](CO)[C@H](O)[C@H]2F)c(=O)[nH]c1=O [L-FMAU, 1-(2′-deoxy-2′-fluoro-β-L-arabinofuranosyl)-thymine] | ~1,000 fold |  |  | 10 | decrease rapidly the number of infected hepatocytes
